Data published in patent publication US10239851B2 (priority 2014, dated 2019).
Where two headings read alike, the source gives them in different places. Marks after values point to notes of the source that are not given here.

How the values were obtained:
SD rats = assay: ED50 and LD50 test concerning anesthesia (sequential method) in rats; format: in vivo
Procedure: (§1) Test samples for the experiment on rabbit were formulated to have corresponding concentrations based on the results from a preliminary test. […] Rats and mice were administered with samples having a fixed concentration of drugs, while the volume of administration altered according to actual situation. The volume of administration to rabbits was 1 mL/kg body weight.
(§2) ED50 and LD50 values concerning anesthesia were determined using a sequential method. Healthy KM mice (male), SD rats (male) and New Zealand White rabbits were used for test. […] For rabbits, the compounds were administered by injection at a constant rate via ear vein for 30 seconds. Before the test, a preliminary test was conducted to determine an approximate dosage (volume of administration) that leads to anesthetization (or death) of animals, which was set as the middle dosage in the formal test. […] The disappearance of righting reflex or death was used as indicators of pharmacological efficacy or toxicity, respectively. The formal test began with the administration of the middle dosage. If animals were anesthetized, a lower dosage was administered; if animals were not anesthetized, a higher dosage was administered, until the cycle was repeated for 3-4 times. LD50 and ED50 were calculated by a sequential method aot425 software. TI was calculated according to the following equation: TI=LD50/ED50.

Kunming mice = assay: Latent period and persistent period of anesthesia in mice; format: in vivo; settings: intravenous injection
KM mice = assay: ED50 and LD50 test concerning anesthesia (sequential method) in mice; format: in vivo; settings: for Mouse ED50: anesthesia (loss of righting reflex); for Mouse ED50 / Mouse LD50: caudal vein injection
Procedure: as §1, §2

[1] = formula G derivatives, rat plasma, 37° C.
[2] = formula G derivatives, rabbit plasma, 37° C.
Procedure: 0.1 ml samples were taken from each of the solutions, added respectively to 1 ml of blood plasma of rabbit (taken from New Zealand white rabbits, treated according to conventional methods, anticoagulated with heparin) or 1 ml of blood plasma of rat (taken from live SD rats, treated according to conventional methods, anticoagulated with heparin), homogeneously mixed, and placed in a thermostatic water bath at 37° C. for incubation with time being recorded. Samples were taken at different time points after the experiment began, and 2 ml of acetonitrile was immediately added. The samples were shaken and centrifuged for 5 min (15,000 rpm), and the supernatant was then taken for HPLC analysis.

[3] = system: New Zealand White rabbits; assay: ED50 and LD50 test concerning anesthesia (sequential method) in rabbits; format: in vivo; settings: injection via ear vein
Procedure: as §1, §2

[4] = system: human prostate cancer PC-3; settings: PC-3 xenograft, nude mice, 33.6 mg/kg, D0 IV, single dose; for Tumor volume (mm^3) (D0): D0 (baseline at grouping); for Tumor inhibitory percent (%) D20: P(D20)=0.000 vs control;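 on Tumor volume (mm^3) (D0): human prostate cancer PC-3 cells implanted under the skin of nude mice to form the xenograft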;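 on Weight change (%) D6: human prostate cancer PC-3 cells implanted under the skin of nude mice to form the xenograft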
Description: Test of the inhibitory activity of the water soluble docetaxel derivatives on subcutaneously xenografted tumor of human prostate cancer PC-3 in nude mice: evaluating and comparing the inhibitory activity of the water soluble docetaxel derivatives and docetaxel on subcutaneously xenografted tumor of human prostate cancer PC-3 in nude mice.
Human prostate cancer PC-3 cells were subcutaneously inoculated into nude mice. After the tumor volume reached 100-150 mm^3, the animals were randomly divided into several groups, and administered with the water soluble docetaxel derivatives of the present invention and docetaxel, respectively once on the same day (D0). The tumor volume was measured 2-3 times per week, the animals were weighed and the data were recorded until day 20 (D20) after grouping.
(§3) The tumor volume (V) was calculated according to the equation: V=½×a×b^2, wherein a and b represent the length and the width, respectively.
(§4) T/C (%)=(T−T0)/(C−C0)×100, wherein T and C represent the tumor volume at the end of the experiment; and T0 and C0 represent the tumor volume at the beginning of the experiment.

[5] = In vitro dissociation of the water soluble taxane derivatives in blood plasma of rabbit; format: in vitro ADME, New Zealand white rabbits; settings: 37° C.
Procedure: The obtained water soluble taxane derivatives were formulated as 0.2 mg/ml aqueous solutions. […] After 5 min, 20 min and 60 min of incubation, 0.2 ml of solutions were respectively taken from each of the samples, and added to acetonitrile (0.4 ml) cooled to −20° C. for precipitation of protein.

[6] = In vitro dissociation of the water soluble taxane derivatives in blood plasma of rat; format: in vitro ADME, SD rats; settings: 37° C.
Procedure: The obtained water soluble taxane derivatives were formulated as 0.2 mg/ml aqueous solutions. […] After 2 min, 5 min and 10 min of incubation, 0.2 ml of solutions were respectively taken from each of the samples, and added to acetonitrile (0.4 ml) cooled to −20° C. for precipitation of protein.

[7] = system: human prostate cancer PC-3; settings: PC-3 xenograft, nude mice; 13 mg/kg, D0 IV, single dose; D20;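 on Tumor volume (mm^3) (D0): human prostate cancer PC-3 cells implanted under the skin of nude mice to form the xenograft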;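 on Weight change (%) D6: human prostate cancer PC-3 cells implanted under the skin of nude mice to form the xenograft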
Description: Test of the inhibitory activity of the water soluble cabazitaxel derivatives on subcutaneously xenografted tumor of human prostate cancer PC-3 in nude mice: evaluating and comparing the inhibitory activity of the water soluble cabazitaxel derivatives and cabazitaxel on subcutaneously xenografted tumor of human prostate cancer PC-3 in nude mice.
Human prostate cancer PC-3 cells were subcutaneously inoculated into nude mice. After the tumor volume reached 100-150 mm^3, the animals were randomly divided into several groups, and administered with the water soluble cabazitaxel derivatives of the present invention and cabazitaxel, respectively once on the same day (D0). The tumor volume was measured 2-3 times per week, the animals were weighed and the data were recorded until day 20 (D20) after grouping.
as §3, §4

[8] = dosage 2 * ED50, 3 mg/ml solution
[9] = dosage 2 * ED50, 6 mg/ml solution
[10] = 3 mg/ml solution, confirmation test
[11] = 6 mg/ml solution, confirmation test

For `CC(C)c1cccc(C(C)C)c1OC(=O)[C@@H](F)CCOP(=O)([O-])[O-].[Na+].[Na+]` [Compound G2, {1-[4-(2,6-diisopropylphenoxy)-4-oxo-3-(S)-3-fluoro-1-butyl]} phosphate monoester disodium salt], the “TI Rat” value (SD rats; 3 mg/ml solution) was 3.3, the “TI Rat” value (SD rats; 6 mg/ml solution) was 2.8 and the “Rat ED50” value (SD rats; anesthesia (loss of righting reflex), caudal vein injection, 6 mg/ml solution) was 21.1 mg/kg. For the same compound, the “Latent Period” value (Kunming mice; [8]) was 16.3 ± 0.8 s, the “Persistent period” value (Kunming mice; [8]) was 383.6 ± 242.1 s and the “Latent Period” value (Kunming mice; [9]) was 15.7 ± 2.3 s. For the same compound, the “Persistent period” value (Kunming mice; [9]) was 571 ± 173 s, the “TI Mouse” value (KM mice; [10]) was 3.0 and the “TI Mouse” value (KM mice; 3 mg/ml solution, first test) was 2.8*. The “TI Mouse” value (KM mice; [11]) was 2.3, the “TI Mouse” value (KM mice; 6 mg/ml solution, first test) was 1.9* and the “Mouse ED50” value (KM mice; [10]) was 19.8 mg/kg. The “Mouse ED50” value (KM mice; 3 mg/ml solution, first test) was 23.7 mg/kg, the “Mouse ED50” value (KM mice; [11]) was 22.8 mg/kg and the “Mouse ED50” value (KM mice; 6 mg/ml solution, first test) was 25.6 mg/kg. The “Mouse LD50” value (KM mice; [10]) was 60.4 mg/kg, the “Mouse LD50” value (KM mice; 3 mg/ml solution, first test) was 65.7 mg/kg and the “Mouse LD50” value (KM mice; 6 mg/ml solution, first test) was 48.7 mg/kg. The “Sampling time/dissociation percent (%) 5 S” value ([1]; sampling time 5 s) was 48.5%, the “Sampling time/dissociation percent (%) 15 S” value ([1]; sampling time 15 s) was 69.7% and the “Sampling time/dissociation percent (%) 15 S” value ([2]; sampling time 15 s) was 37.2%. The “Sampling time/dissociation percent (%) 30 S” value ([2]; sampling time 30 s) was 54.3%, the LD50 ([3]; death) was 38.7 (35.1-41.3) mg/kg and the ED50 ([3]; disappearance of righting reflex) was 14.7 (12.6-19.1) mg/kg.

With `CC(=O)O[C@@]12CO[C@@H]1C[C@H](O)[C@@]1(C)C(=O)[C@H](O)C3=C(C)[C@@H](OC(=O)[C@H](OC(=O)[C@@H](F)CCN(C)C)[C@@H](NC(=O)OC(C)(C)C)c4ccccc4)C[C@@](O)([C@@H](OC(=O)c4ccccc4)[C@H]21)C3(C)C.CS(=O)(=O)O` [Compound C5, 2′-O-[4-(N,N-dimethyl)amino-2(S)-fluorobutyryl]docetaxel methanesulfonate] the “T/C (%) D20” value [4] was −76%, the dissociation percent ([5]; 5 min) was 81.2% and the dissociation percent ([5]; 20 min) was 93.1%. The dissociation percent ([5]; 60 min) was 100%, the dissociation percent ([6]; 2 min) was 58.9% and the dissociation percent ([6]; 5 min) was 93.3%. For the same compound, the dissociation percent ([6]; 10 min) was 100%.

With `CC(=O)O[C@@]12CO[C@@H]1C[C@H](O)[C@@]1(C)C(=O)[C@H](O)C3=C(C)[C@@H](OC(=O)[C@H](OC(=O)[C@H](F)CCN(C)C)[C@@H](NC(=O)OC(C)(C)C)c4ccccc4)C[C@@](O)([C@@H](OC(=O)c4ccccc4)[C@H]21)C3(C)C.CS(=O)(=O)O` [Compound C4, 2′-O-[4-(N,N-dimethyl)amino-2(R)-fluorobutyryl]docetaxel methanesulfonate] the “T/C (%) D20” value [4] was −77%, the dissociation percent ([5]; 5 min) was 81.6% and the dissociation percent ([5]; 20 min) was 94.8%. The dissociation percent ([5]; 60 min) was 100%, the dissociation percent ([6]; 2 min) was 59.2% and the dissociation percent ([6]; 5 min) was 93.4%. For the same compound, the dissociation percent ([6]; 10 min) was 100%.

For `CC(=O)O[C@@]12CO[C@@H]1C[C@H](O)[C@@]1(C)C(=O)[C@H](O)C3=C(C)[C@@H](OC(=O)[C@H](OC(=O)C(F)CCN(C)C)[C@@H](NC(=O)OC(C)(C)C)c4ccccc4)C[C@@](O)([C@@H](OC(=O)c4ccccc4)[C@H]21)C3(C)C.CS(=O)(=O)O` (stereo partly drawn) [Compound C6, 2′-O-[4-(N,N-dimethyl)amino-2(R,S)-fluorobutyryl]docetaxel methanesulfonate], the “T/C (%) D20” value [4] was −76%, the dissociation percent ([5]; 5 min) was 76.8% and the dissociation percent ([5]; 20 min) was 97.8%. The dissociation percent ([5]; 60 min) was 100%, the dissociation percent ([6]; 2 min) was 59.1% and the dissociation percent ([6]; 5 min) was 93.3%. For the same compound, the dissociation percent ([6]; 10 min) was 100%.

For `CC(=O)O[C@@]12CO[C@@H]1C[C@H](O)[C@@]1(C)C(=O)[C@H](O)C3=C(C)[C@@H](OC(=O)[C@H](OC(=O)[C@@H](F)CCCCN(C)C)[C@@H](NC(=O)OC(C)(C)C)c4ccccc4)C[C@@](O)([C@@H](OC(=O)c4ccccc4)[C@H]21)C3(C)C.O=S(=O)(O)O` [Compound 29, 2′-O-[6-(N,N-dimethyl)amino-2(S)-fluorohexanoyl]docetaxel sulfate], the “Tumor volume (mm^3) (D0)” value [4] was 114.7 ± 3.5 mm^3, the “Weight change (%) D6” value [4] was −15.8% and the “T/C (%) D20” value [4] was −20%. For the same compound, the “Tumor volume (mm^3) (D20)” value [4] was 52.4 ± 12.5 mm^3 and the “Tumor inhibitory percent (%) D20” value [4] was 45%.

For `CC(=O)O[C@@]12CO[C@@H]1C[C@H](O)[C@@]1(C)C(=O)[C@H](O)C3=C(C)[C@@H](OC(=O)[C@H](OC(=O)C(F)CCCN(C)C)[C@@H](NC(=O)OC(C)(C)C)c4ccccc4)C[C@@](O)([C@@H](OC(=O)c4ccccc4)[C@H]21)C3(C)C.CS(=O)(=O)O` (stereo partly drawn) [Compound 28, 2′-O-[5-(N,N-dimethyl)amino-2(R,S)-fluorovaleryl]docetaxel methanesulfonate], the “Tumor volume (mm^3) (D0)” value [4] was 118.2 ± 4.8 mm^3, the “Weight change (%) D6” value [4] was −15.4% and the “T/C (%) D20” value [4] was −28%. The “Tumor volume (mm^3) (D20)” value [4] was 41.5 ± 14.7 mm^3 and the “Tumor inhibitory percent (%) D20” value [4] was 64%.

In the case of `CCN(CC)CCC(F)C(=O)OC(C(=O)OC1CC2(O)C(OC(=O)c3ccccc3)C3C4(OC(C)=O)COC4CC(O)C3(C)C(=O)C(O)C(=C1C)C2(C)C)C(NC(=O)OC(C)(C)C)c1ccccc1.O=C(O)C=CC(=O)O` [Compound 24, 2′-O-[4-(N,N-diethyl)amino-2(S)-fluorobutyryl]docetaxel maleate], the “T/C (%) D20” value [4] is reported as −52% and the “Tumor inhibitory percent (%) D20” value [4] is reported as 120%.

For `CCN(C)CCC(F)C(=O)OC(C(=O)OC1CC2(O)C(OC(=O)c3ccccc3)C3C4(OC(C)=O)COC4CC(O)C3(C)C(=O)C(O)C(=C1C)C2(C)C)C(NC(=O)OC(C)(C)C)c1ccccc1.CS(=O)(=O)O` [Compound 23, 2′-O-[4-(N-methyl-N-ethyl)amino-2(R)-fluorobutyryl]docetaxel methanesulfonate], the “T/C (%) D20” value [4] was −62%.

With `CC(=O)O[C@@]12CO[C@@H]1C[C@H](O)[C@@]1(C)C(=O)[C@H](O)C3=C(C)[C@@H](OC(=O)[C@H](OC(=O)[C@H](F)CCN(C)C(C)C)[C@@H](NC(=O)OC(C)(C)C)c4ccccc4)C[C@@](O)([C@@H](OC(=O)c4ccccc4)[C@H]21)C3(C)C.Cl` [Compound 25, 2′-O-[4-(N-methyl-N-isopropyl)amino-2(R)-fluorobutyryl]docetaxel hydrochloride] the “T/C (%) D20” value [4] was −44%.

In the case of `CO[C@H]1C(=O)[C@]2(C)[C@@H](OC)C[C@H]3OC[C@@]3(OC(C)=O)[C@H]2[C@H](OC(=O)c2ccccc2)[C@]2(O)C[C@H](OC(=O)[C@H](OC(=O)[C@H](F)CCN(C)C)[C@@H](NC(=O)OC(C)(C)C)c3ccccc3)C(C)=C1C2(C)C.CS(=O)(=O)O` [Compound C7, 2′-O-[4-(N,N-dimethyl)amino-2(R)-fluorobutyryl]cabazitaxel methanesulfonate], the “T/C (%) D20” value [7] is reported as −67%, the dissociation percent ([5]; 5 min) is reported as 78.4% and the dissociation percent ([5]; 20 min) is reported as 94.8%. It also gave a dissociation percent ([5]; 60 min) of 100%, a dissociation percent ([6]; 2 min) of 49.7% and a dissociation percent ([6]; 5 min) of 88.9%. For the same compound, the dissociation percent ([6]; 10 min) was 100%.

For `CC(=O)O[C@@]12CO[C@@H]1C[C@H](O)[C@@]1(C)C(=O)[C@H](O)C3=C(C)[C@@H](OC(=O)[C@H](OC(=O)[C@@H](CCN(C)C)C(F)(F)F)[C@@H](NC(=O)OC(C)(C)C)c4ccccc4)C[C@@](O)([C@@H](OC(=O)c4ccccc4)[C@H]21)C3(C)C.CS(=O)(=O)O` [Compound 26, 2′-O-[4-(N,N-dimethyl)amino-2(R)-2-trifluoromethylbutyryl] docetaxel methanesulfonate], the “T/C (%) D20” value [4] was −46%.

In the case of `CC(=O)O[C@@]12CO[C@@H]1C[C@H](O)[C@@]1(C)C(=O)[C@H](O)C3=C(C)[C@@H](OC(=O)[C@H](OC(=O)C(CCN(C)C)C(F)F)[C@@H](NC(=O)OC(C)(C)C)c4ccccc4)C[C@@](O)([C@@H](OC(=O)c4ccccc4)[C@H]21)C3(C)C.Cl` (stereo partly drawn) [Compound 27, 2′-O-[4-(N,N-dimethyl)amino-2(R,S)-2-difluoromethylbutyryl]docetaxel hydrochloride], the “T/C (%) D20” value [4] is reported as −37% and the “Tumor inhibitory percent (%) D20” value [4] is reported as 85%.
